Test results reported in US20220332737A1, “CARBOCYCLIC NUCLEOSIDE ANALOGUE” (Ludwig-Maximilians-Universität München, priority 2019, published 2022).
“Also recorded” adds a separate entry of the source. Like-named read-outs stand apart in the source and are kept apart here.

How the values were obtained:
[1] = tested on: mouse embryonic stem cells (mESC); experiment: Treatment of primed mESC, UHPLC-MS2 quantification of genome incorporation and mdC/hmdC levels; type: cell-based; conditions: for level incorporated into the genome: primed mESC
Experimental: Feeder independent wt J1 (strain 129S4/SvJae) cells were cultured in the presence of serum and LIF as previously described. They were routinely maintained on gelatinized plates in 2i/L medium. For priming experiments, 2i cultures were passaged when applicable in DMEM supplemented with FBS and LIF as above but lacking the inhibitors. For drug treatment, cells were moved into the primed state by removing 2i from the medium. Cells were incubated 2 d in DMEM supplemented with FBS and LIF in 6-well plates (VWR). After splitting, 2×10^5 cells were transferred into a 6-well plate culture dish and supplemented with either 1 μM (in 0.01% DMSO) or 5 μM cAzadC (in 0.05% DMSO) and treated for 72 h. After removal of the medium and washing the cells with DPBS, they were directly lysed with RLT^+ buffer as described in a previous publication.
The gDNA was isolated as described previously. The gDNA was directly subjected to a total enzymatic digest and analyzed using UHPLC-MS^2 as described in a previous publication. The external calibration curve was generated by serially diluting pure cAzadC [20 pmol, 10 pmol, 5 pmol, 2.5 pmol, 1.25 pmol, 0.625 pmol, 0.3125 pmol] and measuring it in technical triplicates prior to each measurement. Linear regression was done by OriginPro 2016G.
We investigated if the disarming effect described in Example 3 would influence the biological functions. We used for this purpose mouse embryonic stem cells (mESC) that were primed in serum/Lif as a model system, since mdC levels increase from naïve to primed state. We added cAzadC 1 in two different concentrations (1 μM and 5 μM) to mESC that have been primed for 48 h and allowed the cells to further proliferate under priming conditions in the presence of cAzadC 1 for additional 72 h. After the 72 h, we harvested the cells, isolated the DNA and digested the DNA down to the nucleoside level using our described protocol.
The levels of mdC were finally precisely quantified using isotope dilution UHPLC-MS^2. To this end, isotopically labelled standards of the nucleosides were spiked-in for exact quantification. In addition to mdC, we quantified the levels of 5-hydroxymethyl-2′-deoxycytidine (hmdC), which is formed from mdC by the action of TET enzymes. The absolute levels of hmdC are in mESC more than ten times lower than the mdC levels. The consequence is that even after a substantial reduction of mdC, there should be sufficient mdC to keep the hmdC levels constant. The question if and by how much the hmdC level is affected can therefore inform us about how epigenetic reprogramming is organized.
Parallel to the quantification of mdC and hmdC we also quantified to which extend cAzadC 1 itself was incorporated into the genome of the mESC. Detection of AzadC in the genome of treated cells is only possible after treatment of the DNA with NaBH4. Application of NaBH4 reduces the C(5)=C(6) double bond, which stabilizes the compound so that its quantification becomes possible. To our delight, we noted that the stability of cAzadC 1 allowed its quantification without this pre-treatment. We also noted that the applied enzymatic digestion protocol allowed to digest genomic DNA (gDNA) even in the presence of large amounts of cAzadC 1. Taken together, quantification of cAzadC 1 by UHPLC-MS^2 using an external calibration curve was possible in parallel to quantification of canonical and epigenetic bases.

[2] = Test for hydrolytic stability in KH2PO4 buffer (HPLC); type: physicochemical; conditions: for hydrolytic stability / degradation: aqueous KH2PO4 buffer 100 mM, pH 7.4, 5.5 and 8.5 (all tested pH values), 100 mM compound, r.t.
Experimental: Both nucleosides were dissolved in aqueous KH2PO4 buffer (100 mM, pH=7.4, 5.5 and 8.5) in 100 mM concentration. The solutions were immediately analysed via HPLC (t=0 h) with subsequent HPLC analyses every 1.5 h or at indicated time points. As stationary phase an EC 250/4 NUCLEOSIL 120-3 C18 (Macherey-Nagel) chromatography column was used. The mobile phase consisted of water (buffer A) and acetonitrile (buffer B) at a flow-rate of 0.5 mL/min as follows: 0→25 min, 0→5% buffer B; 25 min→28 min, 5%→80%; 28 min→38 min, 80%; 38 min→43 min 80%→0%; 43 min→45 min, 0%.
Since one treatment cycle for AzadC goes over four weeks we decided to measure the stability at a time point related to a half cycle (14 d). NMR spectra were measured after keeping the solutions at r.t.

[3] = HPLC stability test of a neutral solution in pure water (FIG. 5); type: physicochemical; conditions: 100 mM solutions in pure water, t=0 h to 6 d
Experimental: FIG. 5. HPLC investigation of a neutral solution of Decitabine 1 (left) versus the carbacyclic compound cAzaC 20 (right). 100 mM solutions of the compounds were kept in pure water and tested at t=0 h, 1.5 h, 3 h, 4.5 h, 6 h, 24 h, 6 d.

[4] = tested on: mouse embryonic stem cells (mESC); conditions: from reference [19], cited from earlier work

Nc1ncn([C@@H]2C[C@H](CO)[C@@H](O)C2)c(=O)n1 [cAzadC 1, 4-Amino-1-[(1′R,3′S,4′R)-3′-hydroxy-4′-(hydroxymethyl)-cyclopentyl]-1H -[1,3,5]triazin-2-one]
hmdC levels reduced to ([1]; 1 μM, 72 h): about 50% | nucleotides integrated into the genome ([1]; 1 μM, 72 h): ~3 million | level incorporated into the genome ([1]; 1 μM, 72 h): 5×10^−4 cAzadC per dN | incorporated level relative to the AzadC level ([1]; 1 μM, compared with AzadC at 1 μM [19]): about a third | increase of incorporated level, 5 μM versus 1 μM ([1]; 5 μM versus 1 μM): 3 fold | nucleotides integrated per genome ([1]; 5 μM, 72 h): more than 8 million | hmdC detection ([1]; 5 μM, 72 h, 0.5 μg of genomic DNA): unable to detect hmdC above background levels | level incorporated into the genome ([1]; 5 μM, 72 h): 1.7×10^−3 cAzadC per dN | mdC levels, of the original value ([1]; 72 h at 5 µM concentration in the medium): about 50% | reduction of the mdC values ([1]; 72 h at 1 M cAzadC in the medium): ~30% | mdC level relative to the control levels ([1]; summary, concentration not given): 70% | hydrolytic stability / degradation ([2]; 14 d): no degradation; also recorded: stable at all three pH values

Nc1ncn([C@@H]2C[C@H](CO)[C@@H](O)[C@H]2O)c(=O)n1 [cAzaC 20, 4-Amino-1-[(1′R,2′S,3′R,4′R)-2′,3′-bishydroxy-4′-(hydroxymethyl) -cyclopentyl]-1H-[1,3,5]-triazin-2-one]
stability compared with decitabine [3]: much more stable

Nc1ncn([C@H]2C[C@H](O)[C@@H](CO)O2)c(=O)n1 [AzadC, 5-Aza-2′-deoxycytidine]
decrease of mdC to % of the original value ([4]; 24 h, 1 μM): 50% | level incorporated into the genome ([4]; applied with 1 μM): 1.2×10^−3 AzadC per dN | hydrolytic stability / degradation ([2]; 14 d): strongly degraded; also recorded: severe hydrolytic decomposition | intact compound remaining ([2]; pH=5.5, 14 d): only hardly detectable | intact compound remaining ([2]; pH=8.5, 14 d): only hardly detectable | intact compound remaining / degradation ([2]; physiological pH (7.4), 14 d): still present after 14 d but the level of degradation is dramatic
